Values quoted from earlier work in patent US20180055969A1, “BIPHASIC CERAMIC BONE SUBSTITUTE” (BONE SUPPORT AB, priority 2015, published 2018).

Test system: bone resorption
Conditions: for potency compared with etidronate: times as potent as etidronate; for potency relative to etidronate: value in parenthesis, etidronate as reference

| SMILES | potency compared with etidronate | potency relative to etidronate |
| --- | --- | --- |
| O=P(O)(O)C(Cl)(Cl)P(=O)(O)O [Clodronate, clodronate] | 10 times |  |
| NCCCC(O)(P(=O)(O)O)P(=O)(O)O [alendronate] | 10-100 times | 500 |
| CCCCCN(C)CCC(O)(P(=O)(O)O)P(=O)(O)O [ibandronate] |  | 1000 |
| NCCCCCC(O)(P(=O)(O)O)P(=O)(O)O [neridronate] |  | 100 |
| CN(C)CCC(O)(P(=O)(O)O)P(=O)(O)O [olpadronate] |  | 500 |
| NCCC(O)(P(=O)(O)O)P(=O)(O)O [pamidronate] |  | 100 |
| O=P(O)(O)C(O)(Cc1cccnc1)P(=O)(O)O [risedronate] |  | 2000 |
| O=P(O)(O)C(Sc1ccc(Cl)cc1)P(=O)(O)O [tiludronate] | 10 times |  |
| O=P(O)(O)C(O)(Cn1ccnc1)P(=O)(O)O [zoledronate] | up to 10.000 times | 10000 |
